Source: ChEMBL document CHEMBL5291721, “A preclinical secondary pharmacology resource illuminates target-adverse drug reaction associations of marketed drugs” (Nat Commun, 2023)

What was measured:
[1] = target: Gamma-aminobutyric acid receptor subunit alpha-1 (Rattus norvegicus, UniProt P62813)
[2] = target: T1, Progesterone receptor (Homo sapiens, UniProt P06401); type: functional
T1 sequence (P06401 whole entry): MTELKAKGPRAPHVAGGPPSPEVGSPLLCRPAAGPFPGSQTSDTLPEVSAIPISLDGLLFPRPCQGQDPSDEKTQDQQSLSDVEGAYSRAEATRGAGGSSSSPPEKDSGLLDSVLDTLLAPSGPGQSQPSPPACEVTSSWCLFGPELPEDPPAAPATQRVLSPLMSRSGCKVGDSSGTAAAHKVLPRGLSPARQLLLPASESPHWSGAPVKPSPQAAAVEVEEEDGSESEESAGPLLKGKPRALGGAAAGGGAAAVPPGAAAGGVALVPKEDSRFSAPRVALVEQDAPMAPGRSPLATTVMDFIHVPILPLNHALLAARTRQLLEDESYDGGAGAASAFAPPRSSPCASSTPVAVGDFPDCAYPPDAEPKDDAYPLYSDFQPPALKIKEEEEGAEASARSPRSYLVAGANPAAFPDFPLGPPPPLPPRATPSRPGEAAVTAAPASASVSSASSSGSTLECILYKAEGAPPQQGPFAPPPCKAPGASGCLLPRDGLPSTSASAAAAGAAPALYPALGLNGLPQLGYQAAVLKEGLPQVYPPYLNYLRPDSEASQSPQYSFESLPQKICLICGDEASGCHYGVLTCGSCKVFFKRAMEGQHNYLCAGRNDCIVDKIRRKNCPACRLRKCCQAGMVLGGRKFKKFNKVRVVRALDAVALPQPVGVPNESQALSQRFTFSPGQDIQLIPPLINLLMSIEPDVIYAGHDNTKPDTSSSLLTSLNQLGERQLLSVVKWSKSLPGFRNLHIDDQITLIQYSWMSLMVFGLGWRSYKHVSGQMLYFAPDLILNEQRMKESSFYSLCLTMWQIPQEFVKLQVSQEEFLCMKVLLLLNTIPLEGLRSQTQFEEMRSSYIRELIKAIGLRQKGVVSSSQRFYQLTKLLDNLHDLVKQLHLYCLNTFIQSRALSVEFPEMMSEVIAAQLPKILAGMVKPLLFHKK

[3] = target: Histamine H2 receptor (Homo sapiens, UniProt P25021); type: functional, cell-based
Histamine H2 receptor, sequence (P25021 whole entry): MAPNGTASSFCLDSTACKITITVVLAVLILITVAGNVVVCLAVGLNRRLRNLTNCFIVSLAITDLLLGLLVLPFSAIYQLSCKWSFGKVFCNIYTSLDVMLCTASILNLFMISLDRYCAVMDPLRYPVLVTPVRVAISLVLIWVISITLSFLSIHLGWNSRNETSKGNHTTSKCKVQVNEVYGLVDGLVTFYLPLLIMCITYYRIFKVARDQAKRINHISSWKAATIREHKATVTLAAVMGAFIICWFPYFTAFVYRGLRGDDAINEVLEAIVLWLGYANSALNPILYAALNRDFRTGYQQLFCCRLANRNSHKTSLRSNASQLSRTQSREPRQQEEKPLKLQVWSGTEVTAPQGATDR

[4] = target: Mu-type opioid receptor (Homo sapiens, UniProt P35372)
Mu-type opioid receptor, sequence (P35372 whole entry): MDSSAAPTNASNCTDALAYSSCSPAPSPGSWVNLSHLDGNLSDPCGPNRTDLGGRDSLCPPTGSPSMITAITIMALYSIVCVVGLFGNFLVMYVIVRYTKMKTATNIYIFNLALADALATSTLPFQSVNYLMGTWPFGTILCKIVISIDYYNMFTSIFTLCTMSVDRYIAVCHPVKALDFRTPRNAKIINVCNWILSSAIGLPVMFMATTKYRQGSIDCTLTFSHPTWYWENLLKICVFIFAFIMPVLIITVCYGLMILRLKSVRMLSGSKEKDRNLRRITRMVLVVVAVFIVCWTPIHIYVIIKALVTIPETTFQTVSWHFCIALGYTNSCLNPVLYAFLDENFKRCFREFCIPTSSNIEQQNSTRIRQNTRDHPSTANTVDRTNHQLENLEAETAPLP

[5] = target: T2, 5-hydroxytryptamine receptor 2C (Homo sapiens, UniProt P28335)
T2 sequence (P28335 whole entry): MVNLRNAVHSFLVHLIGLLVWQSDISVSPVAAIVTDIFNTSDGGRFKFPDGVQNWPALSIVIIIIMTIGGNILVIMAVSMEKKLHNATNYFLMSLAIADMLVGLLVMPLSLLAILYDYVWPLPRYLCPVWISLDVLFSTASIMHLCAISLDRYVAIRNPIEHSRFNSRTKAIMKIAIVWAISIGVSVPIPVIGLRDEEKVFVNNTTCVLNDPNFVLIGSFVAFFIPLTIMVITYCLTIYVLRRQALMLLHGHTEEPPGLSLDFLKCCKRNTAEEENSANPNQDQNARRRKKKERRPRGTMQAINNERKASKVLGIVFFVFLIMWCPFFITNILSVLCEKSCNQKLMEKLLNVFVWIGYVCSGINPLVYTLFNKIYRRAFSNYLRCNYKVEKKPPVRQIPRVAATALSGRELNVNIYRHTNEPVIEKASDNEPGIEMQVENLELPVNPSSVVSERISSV

[6] = target: Beta-2 adrenergic receptor (Homo sapiens, UniProt P07550)
Beta-2 adrenergic receptor, sequence (P07550 whole entry): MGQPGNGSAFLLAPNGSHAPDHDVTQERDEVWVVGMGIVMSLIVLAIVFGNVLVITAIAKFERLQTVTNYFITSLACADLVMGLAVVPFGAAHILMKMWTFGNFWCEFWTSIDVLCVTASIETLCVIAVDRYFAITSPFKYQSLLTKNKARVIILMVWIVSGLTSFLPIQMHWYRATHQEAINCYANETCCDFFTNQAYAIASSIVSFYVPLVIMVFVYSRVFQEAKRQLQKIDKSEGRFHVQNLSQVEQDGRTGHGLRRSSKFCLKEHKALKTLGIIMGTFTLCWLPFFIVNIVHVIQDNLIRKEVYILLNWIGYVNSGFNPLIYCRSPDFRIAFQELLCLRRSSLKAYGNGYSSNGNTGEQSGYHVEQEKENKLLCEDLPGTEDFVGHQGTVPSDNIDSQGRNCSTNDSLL

[7] = target: Sodium-dependent dopamine transporter (Homo sapiens, UniProt Q01959)
Sodium-dependent dopamine transporter, sequence (Q01959 whole entry): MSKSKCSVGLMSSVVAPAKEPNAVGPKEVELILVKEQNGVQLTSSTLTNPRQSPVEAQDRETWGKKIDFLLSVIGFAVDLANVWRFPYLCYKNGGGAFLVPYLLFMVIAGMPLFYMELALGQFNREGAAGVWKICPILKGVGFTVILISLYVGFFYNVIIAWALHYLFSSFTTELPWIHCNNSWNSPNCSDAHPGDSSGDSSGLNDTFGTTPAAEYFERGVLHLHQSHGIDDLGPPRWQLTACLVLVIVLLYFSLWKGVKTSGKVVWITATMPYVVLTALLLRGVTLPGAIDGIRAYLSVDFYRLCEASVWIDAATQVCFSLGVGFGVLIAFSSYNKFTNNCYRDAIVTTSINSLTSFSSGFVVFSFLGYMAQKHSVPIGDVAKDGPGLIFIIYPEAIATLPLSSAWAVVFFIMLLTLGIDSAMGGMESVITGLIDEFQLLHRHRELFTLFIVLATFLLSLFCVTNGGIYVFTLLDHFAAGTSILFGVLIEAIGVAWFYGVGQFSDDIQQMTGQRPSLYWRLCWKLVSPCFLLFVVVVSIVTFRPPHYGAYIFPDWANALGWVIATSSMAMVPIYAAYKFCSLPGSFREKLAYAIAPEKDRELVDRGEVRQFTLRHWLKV

[8] = target: Growth hormone secretagogue receptor type 1 (Homo sapiens, UniProt Q92847)
Growth hormone secretagogue receptor type 1, sequence (Q92847 whole entry): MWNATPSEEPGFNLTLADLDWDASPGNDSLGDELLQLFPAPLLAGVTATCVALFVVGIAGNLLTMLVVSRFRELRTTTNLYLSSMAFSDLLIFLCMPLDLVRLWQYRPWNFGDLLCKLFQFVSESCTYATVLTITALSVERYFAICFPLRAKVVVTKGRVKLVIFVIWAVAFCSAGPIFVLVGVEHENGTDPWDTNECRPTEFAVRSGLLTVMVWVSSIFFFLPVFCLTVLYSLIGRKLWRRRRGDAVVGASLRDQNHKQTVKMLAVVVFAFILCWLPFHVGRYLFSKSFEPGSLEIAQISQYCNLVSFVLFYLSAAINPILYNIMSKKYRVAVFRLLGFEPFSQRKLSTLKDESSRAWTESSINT

[9] = target: T3, Thromboxane A2 receptor (Homo sapiens, UniProt P21731)
T3 sequence (P21731 whole entry): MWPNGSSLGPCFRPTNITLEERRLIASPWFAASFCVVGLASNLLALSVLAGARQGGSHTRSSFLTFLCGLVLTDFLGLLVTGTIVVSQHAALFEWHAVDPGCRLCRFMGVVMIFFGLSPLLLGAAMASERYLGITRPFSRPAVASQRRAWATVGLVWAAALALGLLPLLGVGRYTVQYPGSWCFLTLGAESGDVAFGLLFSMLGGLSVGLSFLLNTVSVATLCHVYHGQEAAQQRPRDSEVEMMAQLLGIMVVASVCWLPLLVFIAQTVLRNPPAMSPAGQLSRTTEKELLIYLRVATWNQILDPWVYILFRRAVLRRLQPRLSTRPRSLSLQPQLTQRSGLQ

[10] = target: Beta-1 adrenergic receptor (Homo sapiens, UniProt P08588); type: functional
Beta-1 adrenergic receptor, sequence (P08588 whole entry): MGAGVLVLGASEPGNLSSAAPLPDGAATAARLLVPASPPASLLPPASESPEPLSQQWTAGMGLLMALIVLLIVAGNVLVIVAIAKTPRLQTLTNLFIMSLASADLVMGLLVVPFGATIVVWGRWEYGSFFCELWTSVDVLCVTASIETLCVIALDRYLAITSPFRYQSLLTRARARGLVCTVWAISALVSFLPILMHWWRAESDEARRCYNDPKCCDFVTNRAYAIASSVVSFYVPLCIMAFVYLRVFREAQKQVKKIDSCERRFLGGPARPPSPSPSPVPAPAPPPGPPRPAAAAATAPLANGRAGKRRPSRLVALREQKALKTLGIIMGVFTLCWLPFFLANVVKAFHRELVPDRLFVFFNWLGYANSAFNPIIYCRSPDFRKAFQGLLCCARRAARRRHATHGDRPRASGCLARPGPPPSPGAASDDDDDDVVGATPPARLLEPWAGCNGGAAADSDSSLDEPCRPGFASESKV
Also: assay procedure not described here.

Gamma-aminobutyric acid receptor subunit alpha-1, sequence (P62813 whole entry): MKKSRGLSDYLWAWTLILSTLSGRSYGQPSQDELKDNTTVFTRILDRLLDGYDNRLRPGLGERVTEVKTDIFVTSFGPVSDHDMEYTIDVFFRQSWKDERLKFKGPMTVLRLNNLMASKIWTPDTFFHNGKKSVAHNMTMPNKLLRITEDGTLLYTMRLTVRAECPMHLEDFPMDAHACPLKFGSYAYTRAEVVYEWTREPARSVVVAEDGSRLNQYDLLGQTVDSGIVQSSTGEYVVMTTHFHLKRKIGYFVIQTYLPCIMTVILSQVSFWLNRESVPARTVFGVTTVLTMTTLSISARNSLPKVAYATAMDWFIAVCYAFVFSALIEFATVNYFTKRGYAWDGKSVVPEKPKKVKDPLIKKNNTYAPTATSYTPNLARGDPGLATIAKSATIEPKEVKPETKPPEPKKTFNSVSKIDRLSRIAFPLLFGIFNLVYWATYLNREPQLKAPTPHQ

Row | AC50 [1] [µM] | AC50 [2] [µM] | AC50 [3] [µM] | AC50 [4] [µM] | AC50 [5] [µM] | AC50 [6] [µM] | AC50 [7] [µM] | AC50 [8] [µM] | AC50 [9] [µM] | AC50 [10] [µM] | Structure (SMILES)
1 | > 10 | > 10 | > 10 | > 30 | > 30 | > 10 | > 10 | > 10 | > 10 | > 10 | O=C(O)c1cccnc1Nc1cccc(C(F)(F)F)c1 [NIFLUMIC ACID]
2 | > 10 | > 10 | > 10 | > 30 | > 30 | > 10 | > 10 | > 10 | > 10 | > 10 | CC(C)(Oc1ccc(CCNC(=O)c2ccc(Cl)cc2)cc1)C(=O)O [BEZAFIBRATE]
3 | > 10 | > 10 | > 10 | > 30 | > 30 | > 10 | > 10 | > 10 | > 10 | > 10 | O=C1c2ccccc2C(=O)C1c1ccccc1 [PHENINDIONE]
4 |  | > 30 | > 30 | 17 | 3.5 |  | 15 | 28 | > 30 | 5.7 | CC(Cc1cccc(C(F)(F)F)c1)NCCOC(=O)c1ccccc1 (stereo not drawn) [BENFLUOREX]
5 | > 10 | > 10 | > 10 | > 30 | > 30 | > 10 | > 10 | > 10 | > 10 | > 10 | Cc1ccccc1N1C(=O)c2cc(S(N)(=O)=O)c(Cl)cc2NC1C (stereo not drawn) [METOLAZONE]

Row | Structure (SMILES) | AC50 [1] [µM] | AC50 [2] [µM] | AC50 [3] [µM] | AC50 [4] [µM] | AC50 [5] [µM] | AC50 [6] [µM] | AC50 [7] [µM] | AC50 [8] [µM] | AC50 [9] [µM] | AC50 [10] [µM]
6 | COC(=O)[C@H]1[C@H]2C[C@@H]3c4[nH]c5cc(OC)ccc5c4CCN3C[C@H]2C[C@@H](OC(=O)c2cc(OC)c(OC)c(OC)c2)[C@@H]1OC [RESERPINE] | > 10 | > 10 | > 30 | > 30 | > 30 | > 10 | 13 | > 10 | > 10 | > 10
